Earlier results as cited in patent US7041655B1, “Capillary membrane stabilization and reduction of tissue injury through use of IV biodegradable macromolecules with antioxidants and/or other chemicals” (priority 1996, dated 2006).

Assays:
[1] = used for fluid replacement therapy
[2] = in 24 hours; molecules below 50,000 daltons rapidly eliminated by renal excretion
[3] = intravenous infusion

Row | part of a given total dose appearing in the urine [2] | Substance | toxic reactions observed [1] | duration of improved hemodynamic status of the subject [3] [h] | time over which the expansion of plasma volume decreases ([3]; expansion slightly in excess of the volume infused) [h]
1 |  | dextran | Few toxic reactions |  | 
2 | approximately 40% | hydroxyethyl starch | Few toxic reactions | ≥ 24 | 24 to 36
